Measured values from patent publication US20080103151A9, “Heterocyclic compounds and their uses as therapeutic agents” (Xenon Pharmaceuticals Inc., priority 2005, published 2008).

Key:
[1] = Stability of the isolated solid in the air; assay type: physicochemical; settings: white solid, turned to red in the air
Protocol: A mixture of 3-hydroxy-3-(6-hydroxy-1,3-benzodioxol-5-yl)-1-pentyl-1,3-dihydro-2H-pyrrolo[3,2-c]pyridin-2-one (0.15 g, 0.42 mmol), triethylsilane (1.60 mL, 10.0 mmol) and trifluroacetic acid (0.74 mL, 10.0 mmol) was stirred at ambient temperature overnight. The mixture was diluted with ethyl acetate (100 mL), washed with water, dried over anhydrous sodium sulfate and filtered. The filtrate was concentrated in vacuo. The residue was triturated with diethyl ether to give the title compound as a white solid (not stable, turned to red in the air): MS (ES+) m/z 341.4 (M+1).

[2] = molecular target: NaV1.8 (SK-N-BE2C neuroblastoma cell line) (Homo sapiens, UniProt Q9Y5Y9); assay type: cell-based
[3] = molecular target: Nav1.4 (CHO-K1 cells) (Cricetulus griseus, UniProt A0A9J7H6F9); assay type: cell-based, Chinese Hamster
Chain of Nav1.4 (CHO-K1 cells) (A0A9J7H6F9 1-1930): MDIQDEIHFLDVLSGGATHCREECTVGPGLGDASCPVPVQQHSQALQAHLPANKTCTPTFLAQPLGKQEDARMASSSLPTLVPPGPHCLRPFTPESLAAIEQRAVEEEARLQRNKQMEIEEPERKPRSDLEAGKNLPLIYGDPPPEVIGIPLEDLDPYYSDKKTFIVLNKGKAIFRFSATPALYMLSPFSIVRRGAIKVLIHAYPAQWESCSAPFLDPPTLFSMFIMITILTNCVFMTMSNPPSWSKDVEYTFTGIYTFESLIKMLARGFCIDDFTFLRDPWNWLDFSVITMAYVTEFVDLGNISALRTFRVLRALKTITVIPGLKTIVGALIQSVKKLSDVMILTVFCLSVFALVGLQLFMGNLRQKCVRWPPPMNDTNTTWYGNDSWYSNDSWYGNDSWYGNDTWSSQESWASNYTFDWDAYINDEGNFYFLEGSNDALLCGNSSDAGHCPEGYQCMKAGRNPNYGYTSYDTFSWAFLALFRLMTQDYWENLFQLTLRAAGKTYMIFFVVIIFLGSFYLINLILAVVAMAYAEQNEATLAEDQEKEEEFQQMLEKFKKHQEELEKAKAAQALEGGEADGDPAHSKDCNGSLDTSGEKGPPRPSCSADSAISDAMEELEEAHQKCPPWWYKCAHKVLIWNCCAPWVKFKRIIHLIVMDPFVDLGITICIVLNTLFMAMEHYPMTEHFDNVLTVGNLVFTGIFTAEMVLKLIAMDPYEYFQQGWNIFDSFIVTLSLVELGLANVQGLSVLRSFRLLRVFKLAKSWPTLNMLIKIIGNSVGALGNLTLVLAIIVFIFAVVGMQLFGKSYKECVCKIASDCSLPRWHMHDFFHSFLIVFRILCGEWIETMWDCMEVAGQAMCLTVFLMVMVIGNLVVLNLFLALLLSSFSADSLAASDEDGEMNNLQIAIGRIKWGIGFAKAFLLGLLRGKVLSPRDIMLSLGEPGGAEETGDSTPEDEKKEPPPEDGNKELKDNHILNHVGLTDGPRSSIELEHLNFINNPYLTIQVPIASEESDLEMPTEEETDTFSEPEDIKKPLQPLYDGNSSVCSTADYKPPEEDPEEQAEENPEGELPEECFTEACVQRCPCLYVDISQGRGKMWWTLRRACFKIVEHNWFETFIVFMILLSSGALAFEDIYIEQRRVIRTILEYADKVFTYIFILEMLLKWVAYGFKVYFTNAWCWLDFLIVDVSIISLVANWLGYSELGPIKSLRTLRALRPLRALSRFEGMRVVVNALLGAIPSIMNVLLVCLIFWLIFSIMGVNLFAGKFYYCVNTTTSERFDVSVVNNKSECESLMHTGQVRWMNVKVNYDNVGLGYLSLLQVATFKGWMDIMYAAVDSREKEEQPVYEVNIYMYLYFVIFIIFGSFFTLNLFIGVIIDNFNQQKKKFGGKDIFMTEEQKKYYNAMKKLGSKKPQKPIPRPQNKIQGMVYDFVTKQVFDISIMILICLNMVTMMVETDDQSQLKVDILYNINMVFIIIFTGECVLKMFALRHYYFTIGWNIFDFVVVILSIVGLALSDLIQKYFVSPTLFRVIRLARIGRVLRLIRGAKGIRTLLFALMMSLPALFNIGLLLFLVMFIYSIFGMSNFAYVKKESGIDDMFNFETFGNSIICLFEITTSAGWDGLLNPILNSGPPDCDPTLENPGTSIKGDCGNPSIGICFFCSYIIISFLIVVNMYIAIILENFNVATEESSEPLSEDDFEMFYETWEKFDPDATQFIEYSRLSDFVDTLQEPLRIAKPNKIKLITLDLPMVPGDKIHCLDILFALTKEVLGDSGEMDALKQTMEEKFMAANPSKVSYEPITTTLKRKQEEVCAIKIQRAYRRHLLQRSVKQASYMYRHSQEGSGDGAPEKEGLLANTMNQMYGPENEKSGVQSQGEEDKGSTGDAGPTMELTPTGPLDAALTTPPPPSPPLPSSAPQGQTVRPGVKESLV

[4] = test system: Nav1.4 and 1.5 (L6 rat myoblast cell); assay type: cell-based
[5] = molecular target: Nav1.2 (PC12 pheochromocytoma) (Rattus norvegicus, UniProt P04775)
Chain of Nav1.2 (PC12 pheochromocytoma) (P04775 whole entry, looked up): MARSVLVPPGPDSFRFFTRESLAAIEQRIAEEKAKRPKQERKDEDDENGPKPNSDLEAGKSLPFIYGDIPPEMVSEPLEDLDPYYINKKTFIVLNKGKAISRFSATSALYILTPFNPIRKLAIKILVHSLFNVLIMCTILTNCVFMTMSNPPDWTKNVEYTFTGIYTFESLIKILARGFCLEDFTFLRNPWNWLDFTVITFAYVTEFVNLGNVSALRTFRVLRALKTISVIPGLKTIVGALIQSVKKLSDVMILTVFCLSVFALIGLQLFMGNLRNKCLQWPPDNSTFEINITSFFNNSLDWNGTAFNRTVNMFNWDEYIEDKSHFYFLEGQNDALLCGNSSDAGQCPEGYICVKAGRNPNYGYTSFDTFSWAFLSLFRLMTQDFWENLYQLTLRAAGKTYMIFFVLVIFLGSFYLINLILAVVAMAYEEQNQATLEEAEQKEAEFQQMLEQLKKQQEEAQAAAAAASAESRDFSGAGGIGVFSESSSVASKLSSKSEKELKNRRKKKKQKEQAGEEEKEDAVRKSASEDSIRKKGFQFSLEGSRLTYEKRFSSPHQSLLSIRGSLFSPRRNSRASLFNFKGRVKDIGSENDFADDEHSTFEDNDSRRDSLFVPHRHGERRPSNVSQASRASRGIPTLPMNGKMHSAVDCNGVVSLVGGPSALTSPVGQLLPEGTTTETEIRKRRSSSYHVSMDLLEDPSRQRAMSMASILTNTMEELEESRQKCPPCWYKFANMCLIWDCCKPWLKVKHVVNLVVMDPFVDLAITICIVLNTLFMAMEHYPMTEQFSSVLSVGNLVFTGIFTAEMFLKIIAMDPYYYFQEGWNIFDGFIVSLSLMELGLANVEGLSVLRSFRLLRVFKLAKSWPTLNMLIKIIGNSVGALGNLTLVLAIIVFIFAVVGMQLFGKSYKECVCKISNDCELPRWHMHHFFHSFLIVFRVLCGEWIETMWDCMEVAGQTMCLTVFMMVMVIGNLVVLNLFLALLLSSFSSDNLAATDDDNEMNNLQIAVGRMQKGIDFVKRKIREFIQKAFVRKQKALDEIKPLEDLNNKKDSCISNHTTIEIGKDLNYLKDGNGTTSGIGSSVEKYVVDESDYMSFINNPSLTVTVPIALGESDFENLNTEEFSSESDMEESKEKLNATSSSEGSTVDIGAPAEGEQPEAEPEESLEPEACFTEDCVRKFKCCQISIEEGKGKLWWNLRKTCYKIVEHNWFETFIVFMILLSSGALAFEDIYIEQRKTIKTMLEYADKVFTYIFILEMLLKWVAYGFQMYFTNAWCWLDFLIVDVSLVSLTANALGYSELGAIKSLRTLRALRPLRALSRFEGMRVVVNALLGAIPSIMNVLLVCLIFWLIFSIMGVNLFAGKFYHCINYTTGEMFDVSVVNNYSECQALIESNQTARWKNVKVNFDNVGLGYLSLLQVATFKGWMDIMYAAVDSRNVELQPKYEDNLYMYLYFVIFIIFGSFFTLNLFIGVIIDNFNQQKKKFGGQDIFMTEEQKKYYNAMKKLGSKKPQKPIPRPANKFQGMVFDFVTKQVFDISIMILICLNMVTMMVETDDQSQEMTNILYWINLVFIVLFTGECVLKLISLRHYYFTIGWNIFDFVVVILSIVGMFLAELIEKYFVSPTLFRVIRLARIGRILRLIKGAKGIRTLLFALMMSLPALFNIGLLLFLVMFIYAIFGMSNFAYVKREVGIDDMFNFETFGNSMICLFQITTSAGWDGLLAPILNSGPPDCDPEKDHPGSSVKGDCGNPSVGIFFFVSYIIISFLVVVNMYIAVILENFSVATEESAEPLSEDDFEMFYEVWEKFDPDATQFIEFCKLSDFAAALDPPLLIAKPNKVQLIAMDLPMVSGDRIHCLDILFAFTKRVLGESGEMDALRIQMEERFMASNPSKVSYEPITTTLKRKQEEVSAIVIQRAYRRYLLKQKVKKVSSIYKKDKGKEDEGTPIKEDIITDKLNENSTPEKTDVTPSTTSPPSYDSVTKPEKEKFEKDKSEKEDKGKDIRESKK

For `CCCCCN1C(=O)C(O)(c2ccc3c(c2)OCO3)c2cccnc21` (centres unmarked), the melting point was 104 to 105 °C.
Work on `CCCCCN1C(=O)C(O)(c2cc3c(cc2O)OCO3)c2cnccc21` (centres unmarked) yielded a melting point of 193 to 195 °C.
With `CCCCCN1C(=O)C(c2cc3c(cc2O)OCO3)c2cnccc21` (centres unmarked) [Example 10, 3-(6-hydroxy-1,3-benzodioxol-5-yl)-1-pentyl-1,3-dihydro-2H-pyrrolo[3,2-c]pyridin-2-one] the “stability of the solid in the air” value [1] was “not stable”.
With `CCCCCN1C(=O)C(c2ccc3c(c2)OCO3)c2cccnc21` (centres unmarked) [Example 17, 3-(1,3-benzodioxol-5-yl)-1-pentyl-1,3-dihydro-2H-pyrrolo[2,3-b]pyridin-2-one] the melting point was 75 to 77 °C.
In the case of `NC1=N[C@H](O)[C@H]2[C@H]3O[C@]4(O)O[C@@H]([C@@H](O)[C@@]2(N1)[C@@H]4O)[C@]3(O)CO` [TTX, tetrodotoxin], the “block of [^14C] Guanidine influx by TTX” value [2] is reported as “TTX partially blocked influx”, the “block of [^14C] Guanidine influx by TTX” value [3] is reported as “Guanidine influx was completely” and the “block of [^14C] Guanidine influx by TTX” value [4] is reported as “partially blocked by TTX (Nav1.5”. The “block of [^14C] Guanidine influx by TTX” value [5] was “Guanidine influx was completely”.
